Experimental data: the NIST ThermoML archive (doi:10.1016/j.tca.2013.08.001)
± gives the expanded uncertainty stated by the source.

What was measured:
[1] = DTA
[2] = Molar enthalpy of transition or fusion; details: DSC

Question: What does the source list for `CCCCCCCCCCCCCCCCCCCCCC` [docosane]?
Answer: Triple point temperature ([1]; Crystal 1): 318.08 ± 0.39 K; Triple point temperature ([1]; Crystal 2): 317.22 ± 0.39 K; Molar enthalpy of transition or fusion ([2]; Crystal 1): 11.7 ± 0.382 kcal/mol; Molar enthalpy of transition or fusion ([2]; Crystal 2): 6.92 ± 0.153 kcal/mol
